Measured values as given in patent US6716863B2, “Heterocyclic compounds their production and use” (Takeda Chemical Industries, Ltd., priority 2000, dated 2004).

Which melting point does the source give for `Cc1ccc(/C=C/c2nc(COc3ccc(CCCCn4ccnn4)cc3)co2)cc1` [Example 1] here?
The melting point was 154 to 155 °C.

For `Fc1ccc(/C=C/c2nc(COc3ccc(CCCCn4ccnn4)cc3)co2)cc1` [Example 2, 1-{4-[4-({2-[(E)-2-(4-fluorophenyl)ethenyl]-1,3-oxazol-4-yl}methoxy)phenyl]butyl}-1H-1,2,3-triazole], which melting point is on record?
Its melting point is 124 to 125 °C.

With `Fc1ccc(/C=C/c2nc(COc3cccc(CCCn4ccnn4)c3)co2)cc1` [Example 3, 1-{3-[3-({2-[(E)-2-(4-fluorophenyl)ethenyl]-1,3-oxazol-4-yl}methoxy)phenyl]propyl}-1H-1,2,3-triazole] as the molecule, how does the melting point read?
The melting point was 105 to 106 °C.

With `FC(F)(F)c1ccc(/C=C/c2nc(COc3ccc(CCCn4ccnn4)cc3)co2)cc1` [Example 5, 1-(3-{4-[(2-((E)-2-[4-(trifluoromethyl)phenyl]ethenyl)-1,3-oxazol-4-yl)methoxy]phenyl}propyl)-1H-1,2,3-triazole] as the molecule, how does the melting point read?
Its melting point is 157 to 158 °C.

With `FC(F)(F)c1ccc(/C=C/c2nc(COc3cccc(CCCn4ccnn4)c3)co2)cc1` [Example 6, 1-(3-{3-[(2-((E)-2-[4-(trifluoromethyl)phenyl]ethenyl}-1,3-oxazol-4-yl)methoxy]phenyl}propyl)-1H-1,2,3-triazole] as the molecule, how does the melting point read?
The melting point was 115 to 116 °C.

With `Fc1ccc(/C=C/c2nc(COc3ccc(CCCCn4ccnn4)cc3)co2)c(F)c1` [Example 7, 1-{4-[4-({2-[(E)-2-(2,4-difluorophenyl)ethenyl]-1,3-oxazol-4-yl}methoxy)phenyl]butyl}-1H-1,2,3-triazole] as the molecule, how does the melting point read?
The melting point was 115 to 117 °C.

With `Fc1ccc(/C=C/c2nc(COc3cccc(CCCn4ccnn4)c3)co2)c(F)c1` [Example 8, 1-{3-[3-({2-[(E)-2-(2,4-difluorophenyl)ethenyl]-1,3-oxazol-4-yl}methoxy)phenyl]propyl}-1H-1,2,3-triazole] as the molecule, how does the melting point read?
Its melting point is 89 to 90 °C.

Which melting point does the source give for `Cc1ccc(/C=C/c2nc(COc3ccc(CCCCn4ccnc4CCO)cc3)co2)cc1` [Example 10, 2-[1-[4-[4-[[2-[(E)-2-(4-methylphenyl)ethenyl]-1,3-oxazol-4-yl]methoxy]phenyl]butyl]-1H-imidazol-2-yl]-1-ethanol] here?
The melting point was 108 to 109 °C.

Which melting point does the source give for `Cc1cccc(/C=C/c2nc(COc3ccc(CCCCn4ccnc4CCO)cc3)co2)c1` [Example 11, 2-[1-[4-[4-[[2-[(E)-2-(3-methylphenyl)ethenyl]-1,3-oxazol-4-yl]methoxy]phenyl]butyl]-1H-imidazol-2-yl]-1-ethanol] here?
Its melting point is 109 to 111 °C.

Which melting point does the source give for `Cc1ccccc1/C=C/c1nc(COc2ccc(CCCCn3ccnc3CCO)cc2)co1` [Example 12, 2-[1-[4-[4-[[2-[(E)-2-(2-methylphenyl)ethenyl]-1,3-oxazol-4-yl]methoxy]phenyl]butyl]-1H-imidazol-2-yl]-1-ethanol] here?
The melting point was 91 to 93 °C.

For `CCc1ccc(/C=C/c2nc(COc3ccc(CCCCn4ccnc4CCO)cc3)co2)cc1` [Example 13, 2-[1-[4-[4-[[2-[(E)-2-(4-ethylphenyl)ethenyl]-1,3-oxazol-4-yl]methoxy]phenyl]butyl]-1H-imidazol-2-yl]-1-ethanol], which melting point is on record?
The melting point was 94 to 95 °C.

For `OCCc1nccn1CCCCc1ccc(OCc2coc(/C=C/c3ccc(F)cc3)n2)cc1` [Example 14, 2-(1-(4-[4-({2-[(E)-2-(4-fluorophenyl)ethenyl]-1,3-oxazol-4-yl}methoxy)phenyl]butyl)-1H-imidazol-2-yl)-1-ethanol], which melting point is on record?
The melting point was 130 to 132 °C.

With `OCCc1nccn1CCCCc1ccc(OCc2coc(/C=C/c3ccc(Cl)cc3)n2)cc1` [Example 15, 2-[1-[4-[4-[[2-[(E)-2-(4-chlorophenyl)ethenyl]-1,3-oxazol-4-yl]methoxy]phenyl]butyl]-1H-imidazol-2-yl]-1-ethanol] as the molecule, how does the melting point read?
The melting point was 127 to 128 °C.

For `OCCc1nccn1CCCCc1ccc(OCc2coc(/C=C/c3ccc(Br)cc3)n2)cc1` [Example 16, 2-[1-[4-[4-[[2-[(E)-2-(4-bromophenyl)ethenyl]-1,3-oxazol-4-yl]methoxy]phenyl]butyl]-1H-imidazol-2-yl]-1-ethanol], which melting point is on record?
Its melting point is 149 to 150 °C.

Which melting point does the source give for `OCCc1nccn1CCCCc1ccc(OCc2coc(/C=C/c3ccc(F)cc3F)n2)cc1` [Example 19, 2-[1-[4-[4-[[2-[(E)-2-(2,4-difluorophenyl)ethenyl]-1,3-oxazol-4-yl]methoxy]phenyl]butyl]-1H-imidazol-2-yl]-1-ethanol] here?
The melting point was 93 to 95 °C.

For `OCCc1nccn1CCCc1ccc(OCc2coc(/C=C/c3ccc(F)cc3F)n2)cc1` [Example 20, 2-[1-[3-[4-[[2-[(E)-2-(2,4-difluorophenyl)ethenyl]-1,3-oxazol-4-yl]methoxy]phenyl]propyl]-1H-imidazol-2-yl]-1-ethanol], which melting point is on record?
The melting point was 94 to 96 °C.

With `OCCc1nccn1CCCCc1ccc(OCc2coc(/C=C/c3c(F)cccc3F)n2)cc1` [Example 21] as the molecule, how does the melting point read?
The melting point was 106 to 107 °C.

For `Cc1cccc(/C=C/c2nc(COc3ccc(CCCCn4ccnc4CC(O)CO)cc3)co2)c1` (stereo not shown) [Example 22, 3-(1-{4-[4-({2-[(E)-2-(3-methylphenyl)ethenyl]-1,3-oxazol-4-yl}methoxy)phenyl]butyl}-1H-imidazol-2-yl)-1,2-propanediol], which melting point is on record?
The melting point was 102 to 104 °C.

With `OCC(O)Cc1nccn1CCCCc1ccc(OCc2coc(/C=C/c3ccc(F)cc3)n2)cc1` (stereo not shown) [Example 23, 3-(1-{4-[4-({2-[(E)-2-(4-fluorophenyl)ethenyl]-1,3-oxazol-4-yl}methoxy)phenyl]butyl}-1H-imidazol-2-yl)-1,2-propanediol] as the molecule, how does the melting point read?
The melting point was 114 to 116 °C.

With `OCC(O)Cc1nccn1CCCCc1ccc(OCc2coc(/C=C/c3ccc(C(F)(F)F)cc3)n2)cc1` (stereo not shown) [Example 24, 3-[1-(4-(4-[(2-{(E)-2-[4-(trifluoromethyl)phenyl]ethenyl}-1,3-oxazol-4-yl)methoxy]phenyl}butyl)-1H-imidazol-2-yl]-1,2-propanediol] as the molecule, how does the melting point read?
The melting point was 142 to 143 °C.

With `OCC(O)Cc1nccn1CCCc1cccc(OCc2coc(/C=C/c3ccc(C(F)(F)F)cc3)n2)c1` (stereo not shown) [Example 25, 3-[1-(3-{3-[(2-{(E)-2-[4-(trifluoromethyl)phenyl]ethenyl}-1,3-oxazol-4-yl)methoxy]phenyl}propyl)-1H-imidazol-2-yl]-1,2-propanediol] as the molecule, how does the melting point read?
Its melting point is 102 to 104 °C.

Which melting point does the source give for `OCC(O)Cc1nccn1CCCCc1ccc(OCc2coc(/C=C/c3ccc(F)cc3F)n2)cc1` (stereo not shown) [Example 26, 3-(1-{4-[4-({2-[(E)-2-(2,4-difluorophenyl)ethenyl]-1,3-oxazol-4-yl]methoxy)phenyl]butyl}-1H-imidazol-2-yl)-1,2-propanediol] here?
Its melting point is 126 to 128 °C.

Which melting point does the source give for `OCC(O)Cc1nccn1CCCCc1ccc(OCc2coc(/C=C/c3c(F)cccc3F)n2)cc1` (stereo not shown) [Example 28, 3-[1-[4-[4-[[2-[(E)-2-(2,6-difluorophenyl)ethenyl]-1,3-oxazol-4-yl]methoxy]phenyl]butyl]-1H-imidazol-2-yl]-1,2-propanediol] here?
The melting point was 123 to 125 °C.

Which melting point does the source give for `OC[C@H](O)Cc1nccn1CCCCc1ccc(OCc2coc(/C=C/c3ccc(F)cc3F)n2)cc1` [Example 29] here?
Its melting point is 104 to 106 °C.

With `OC[C@@H](O)Cc1nccn1CCCCc1ccc(OCc2coc(/C=C/c3ccc(F)cc3F)n2)cc1` [Example 30] as the molecule, how does the melting point read?
The melting point was 106 to 108 °C.
